Data reported in patent US20100047308A1, “Production methods of virus inactivated and cell-free body implant” (priority 2006, published 2010).

Test system: L-929 cells (fibroblasts)
Experiment: Cytotoxicity of graft exudates according to USP <87> (cell lysis, inhibition of cell growth)
Details: 24 hours, USP <87> qualitative method
Experimental: The acellular dermal implants obtained after treatment with the solvent/detergent were powdered and mixed with 1 ml of distilled water for every 300 mg of the powder. To 4 g of the mixed sample was added 20 ml of physiological saline, followed by extraction at 37° C. for 72 hours. Tests were conducted within 24 hours after the completion of the extraction. The extract was mixed at a volume ratio of 1:2 with a culture medium (MEM). L-929 cells (fibroblasts), which are usually used in inhibition tests because of their high susceptibility to chemicals, were plated at a density of 10^5 cells per ml before culturing. […] This experiment was repeated three times while cytotoxicity was evaluated according to the qualitative method of USP <87>.
In order to examine whether the solvent/detergent solution remaining in the acellular dermal implants had toxic effects on cells of the patient, the exudates from the grafts were assayed for cytotoxicity.

Compound: C[S+](C)[O-] [Positive Control, DMSO]
- Exudate Grades (cytotoxicity): 4
